According to US20230373952A1, “LACTAM COMPOUNDS AS Kv1.3 POTASSIUM SHAKER CHANNEL BLOCKERS” (D.E. Shaw Research, LLC, priority 2020, published 2023):

Key:
Kv1.3 potassium channel = molecular target: T1, Kv1.3 potassium channel (Homo sapiens, UniProt P22001); assay: Kv1.3 potassium channel blocker activity, automated whole-cell patch clamp (Patchliner); type: cell-based; conditions: CHO-K1 cells stably expressing Kv1.3; whole-cell current inhibition, Hill fit; read-out: Kv1.3 IC50
T1 construct: expressed in transfected cells
T1 sequence (P22001 whole entry): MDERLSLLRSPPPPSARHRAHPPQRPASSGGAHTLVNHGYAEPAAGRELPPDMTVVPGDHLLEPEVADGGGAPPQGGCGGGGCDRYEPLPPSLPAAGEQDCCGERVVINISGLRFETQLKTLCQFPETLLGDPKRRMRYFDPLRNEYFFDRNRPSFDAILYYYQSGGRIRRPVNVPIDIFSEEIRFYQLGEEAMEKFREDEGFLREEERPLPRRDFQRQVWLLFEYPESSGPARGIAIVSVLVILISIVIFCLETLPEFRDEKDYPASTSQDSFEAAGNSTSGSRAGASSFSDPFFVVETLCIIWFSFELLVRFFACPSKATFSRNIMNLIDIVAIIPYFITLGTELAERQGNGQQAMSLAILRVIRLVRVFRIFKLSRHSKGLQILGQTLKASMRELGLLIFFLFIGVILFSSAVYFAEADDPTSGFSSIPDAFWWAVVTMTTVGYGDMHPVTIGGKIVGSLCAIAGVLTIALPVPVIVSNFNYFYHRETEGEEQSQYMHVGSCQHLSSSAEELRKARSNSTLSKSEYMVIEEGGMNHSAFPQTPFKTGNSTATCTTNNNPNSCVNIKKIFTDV
Protocol: CHO-K1 cells stably expressing Kv1.3 were grown in DMEM containing 10% heat-inactivated FBS, 1 mM sodium pyruvate, 2 mM L-glutamine and G418 (500 μg/ml).
The currents were evoked by applying 100 ms depolarizing pulses from −90 mV (holding potential) to +40 mV were applied with 0.1 Hz frequency. […] 10-second breaks were used between pulse trains (see Table H below).
Passive leak currents were subtracted online using a P/4 procedure (HEKA Elektronik Dr. Schulze GmbH). […] Total compound incubation time before the next pulse train was not longer than 10 seconds. Peak current inhibition was observed during compound equilibration.

hERG channel [1] = molecular target: T2, hERG channel (Homo sapiens, UniProt Q12809); assay: cell-based
T2 sequence (Q12809 whole entry): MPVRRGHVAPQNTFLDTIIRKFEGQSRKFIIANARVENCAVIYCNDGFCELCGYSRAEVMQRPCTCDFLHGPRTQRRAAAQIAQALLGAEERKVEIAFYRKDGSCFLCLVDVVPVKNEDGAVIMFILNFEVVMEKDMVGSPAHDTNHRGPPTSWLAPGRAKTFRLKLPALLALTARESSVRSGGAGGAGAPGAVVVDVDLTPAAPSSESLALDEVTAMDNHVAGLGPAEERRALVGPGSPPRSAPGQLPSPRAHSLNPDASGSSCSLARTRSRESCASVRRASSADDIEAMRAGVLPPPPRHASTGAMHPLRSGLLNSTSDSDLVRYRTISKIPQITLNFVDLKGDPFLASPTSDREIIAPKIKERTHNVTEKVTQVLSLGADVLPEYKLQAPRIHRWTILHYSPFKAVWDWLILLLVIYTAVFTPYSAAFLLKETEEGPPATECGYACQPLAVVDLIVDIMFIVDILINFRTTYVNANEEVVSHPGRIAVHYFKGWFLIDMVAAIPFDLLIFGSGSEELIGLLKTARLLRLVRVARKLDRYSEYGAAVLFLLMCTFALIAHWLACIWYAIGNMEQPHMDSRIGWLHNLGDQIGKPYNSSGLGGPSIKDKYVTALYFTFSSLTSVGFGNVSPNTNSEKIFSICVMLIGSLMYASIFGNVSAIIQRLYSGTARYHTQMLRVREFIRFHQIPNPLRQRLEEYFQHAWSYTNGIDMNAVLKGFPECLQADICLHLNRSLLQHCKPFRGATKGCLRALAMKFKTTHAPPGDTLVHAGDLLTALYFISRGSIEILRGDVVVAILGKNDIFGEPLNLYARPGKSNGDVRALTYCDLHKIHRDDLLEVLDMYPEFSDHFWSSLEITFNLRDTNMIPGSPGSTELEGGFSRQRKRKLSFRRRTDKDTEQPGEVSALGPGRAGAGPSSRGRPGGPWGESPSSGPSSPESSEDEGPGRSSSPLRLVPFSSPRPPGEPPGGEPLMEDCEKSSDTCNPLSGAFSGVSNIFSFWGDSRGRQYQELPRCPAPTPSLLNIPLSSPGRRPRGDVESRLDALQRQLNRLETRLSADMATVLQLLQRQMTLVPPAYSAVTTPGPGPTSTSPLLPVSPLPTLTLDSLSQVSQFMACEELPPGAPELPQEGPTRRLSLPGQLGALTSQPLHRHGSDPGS
Protocol: (§1) This assay is used to evaluate the disclosed compounds' inhibition activities against the hERG channel.
(§2) CHO-K1 cells stably expressing hERG were grown in Ham's F-12 Medium with glutamine containing 10% heat-inactivated FBS, 1% penicillin/streptomycin, hygromycin (100 μg/ml) and G418 (100 μg/ml). Cells were grown in culture flasks at 37° C. in a 5% CO2-humidified incubator.
(§3) All compounds were dissolved in DMSO at 30 mM. Compound stock solutions were freshly diluted with external solution to concentrations of 30 nM, 100 nM, 300 nM, 1 μM, 3 μM, 10 μM, 30 μM and 100 μM. The highest content of DMSO (0.3%) was present in 100 μM.
(§4) The voltage protocol (see Table I) was designed to simulate voltage changes during a cardiac action potential with a 300 ms depolarization to +20 mV (analogous to the plateau phase of the cardiac action potential), a repolarization for 300 ms to −50 mV (inducing a tail current) and a final step to the holding potential of −80 mV. The pulse frequency was 0.3 Hz. Control (compound-free) and compound pulse trains for each compound concentration applied contained 70 pulses.
(§5) Whole-cell current recordings and compound application were enabled by means of an automated patch clamp platform Patchliner (Nanion). EPC 10 patch clamp amplifier (HEKA) along with Patchmaster software (HEKA Elektronik Dr. Schulze GmbH) was used for data acquisition. Data were sampled at 10 kHz without filtering. Increasing compound concentrations were applied consecutively to the same cell without washouts in between.
(§6) AUC and PEAK values were obtained with Patchmaster (HEKA Elektronik Dr. Schulze GmbH). To determine IC50 the last single pulse in the pulse train corresponding to a given compound concentration was used. Obtained AUC and PEAK values in the presence of compound were normalized to control values in the absence of compound.

hERG channel [2] = molecular target: T2, hERG channel; assay: hERG electrophysiology, automated whole-cell patch clamp (Patchliner); conditions: read-out: hERG IC50; CHO-K1 cells stably expressing hERG; whole-cell current inhibition, Hill fit
Protocol: as §1, §2, §3, §4, §5, §6

SMILES	IC50 (Kv1.3 potassium channel) [nM]	IC50 (hERG channel [1]) [µM]	IC50 (hERG channel [2]) [µM]
O=C1C[C@@H](c2c(O)ccc(Cl)c2Cl)CN1CC(CO)CO [Compound 42, (4S)-4-(2,3-dichloro-6-hydroxyphenyl)-1-[3-hydroxy-2-(hydroxymethyl)propyl]pyrrolidin-2-one]	< 100	> 30	–
NCCCN1C[C@H](c2c(O)ccc(Cl)c2Cl)CC1=O [Compound 43, (4S)-1-(3-aminopropyl)-4-(2,3-dichloro-6-hydroxyphenyl)pyrrolidin-2-one]	< 10	> 30	–
O=C1C[C@@H](c2c(O)ccc(Cl)c2Cl)CN1CC1(CO)CNC1 [Compound 46, (S)-4-(2,3-dichloro-6-hydroxyphenyl)-1-((3-(hydroxymethyl)azetidin-3-yl)methyl)pyrrolidin-2-one]	< 100	> 100	–
CC(O)(CO)CN1C[C@H](c2c(O)ccc(Cl)c2Cl)CC1=O (stereo partly drawn) [Compound 55, (4S)-4-(2,3-dichloro-6-hydroxyphenyl)-1-(2,3-dihydroxy-2-methylpropyl)pyrrolidin-2-one]	< 1000	> 100	–
O=C1C[C@@H](c2c(O)ccc(Cl)c2Cl)CN1C1CC(F)(F)C1 [Compound 74, (S)-4-(2,3-dichloro-6-hydroxyphenyl)-1-(3,3-difluorocyclobutyl)pyrrolidin-2-one]	< 1000	> 30	–
O=C1CNCCN1CCN1C[C@H](c2c(O)ccc(Cl)c2Cl)CC1=O [Compound 75, 1-[2-[(4S)-4-(2,3-dichloro-6-hydroxyphenyl)-2-oxopyrrolidin-1-yl]ethyl]piperazin-2-one]	< 100	> 30	–
C[C@@H]1[C@H](c2c(O)ccc(Cl)c2Cl)CC(=O)N1C1CNC1 [Compound 82, (4S,5R)-1-(azetidin-3-yl)-4-(2,3-dichloro-6-hydroxyphenyl)-5-methylpyrrolidin-2-one]	< 100	–	> 30
C[C@H]1[C@H](c2c(O)ccc(Cl)c2Cl)CC(=O)N1CCCO [Compound 86, (4S,5S)-4-(2,3-dichloro-6-hydroxyphenyl)-1-(3-hydroxypropyl)-5-methylpyrrolidin-2-one]	< 100	> 30	–
N[C@H]1C(=O)N(C2CNC2)C[C@@H]1c1c(O)ccc(Cl)c1Cl [Compound 92, (3R,4S)-3-amino-1-(azetidin-3-yl)-4-(2,3-dichloro-6-hydroxyphenyl)pyrrolidin-2-one]	< 1000	> 100	–
O=C1N[C@@H](c2c(O)ccc(Cl)c2Cl)CN1CCO [Compound 99, (4S)-4-(2,3-dichloro-6-hydroxyphenyl)-1-(2-hydroxyethyl)imidazolidin-2-one]	< 100	> 100	–
Cn1cc(N2C[C@H](c3c(O)ccc(Cl)c3Cl)NC2=O)cn1 [Compound 100, (4S)-4-(2,3-dichloro-6-hydroxyphenyl)-1-(1-methylpyrazol-4-yl)imidazolidin-2-one]	< 100	> 30	–
O=C1N[C@@H](c2c(O)ccc(Cl)c2Cl)CN1C[C@H](O)CO [Compound 102, (4S)-4-(2,3-dichloro-6-hydroxyphenyl)-1-[(2S)-2,3-dihydroxypropyl]imidazolidin-2-one]	< 100	> 100	–
O=C1N[C@@H](c2c(O)ccc(Cl)c2Cl)CN1C[C@@H](O)CO [Compound 103, (4S)-4-(2,3-dichloro-6-hydroxyphenyl)-1-[(2R)-2,3-dihydroxypropyl]imidazolidin-2-one]	< 1000	> 100	–
O=C1N[C@@H](c2c(O)ccc(Cl)c2Cl)CN1CCCO [Compound 104, (4S)-4-(2,3-dichloro-6-hydroxyphenyl)-1-(3-hydroxypropyl)imidazolidin-2-one]	< 100	> 100	–
N[C@@H]1C(=O)N(CCO)C[C@@H]1c1c(O)ccc(Cl)c1Cl [Compound 105]	< 1000	> 100	–

Continued, in another order:

IC50 (Kv1.3 potassium channel) [nM]	SMILES	IC50 (hERG channel [1]) [µM]	IC50 (hERG channel [2]) [µM]
< 100	COCCCN1C[C@H](c2c(O)ccc(Cl)c2Cl)CC1=O [Compound 44, (S)-4-(2,3-dichloro-6-hydroxyphenyl)-1-(3-methoxypropyl)pyrrolidin-2-one]	> 10	–
< 100	C[C@@H](O)CN1C[C@H](c2c(O)ccc(Cl)c2Cl)CC1=O [Compound 53, (S)-4-(2,3-dichloro-6-hydroxyphenyl)-1-((R)-2-hydroxypropyl)pyrrolidin-2-one]	> 30	–
< 100	C[C@H](O)CN1C[C@H](c2c(O)ccc(Cl)c2Cl)CC1=O [Compound 54, (4S)-4-(2,3-dichloro-6-hydroxyphenyl)-1-[(2S)-2-hydroxypropyl]pyrrolidin-2-one]	> 30	–
< 100	Cn1cc(N2C[C@H](c3c(O)ccc(Cl)c3Cl)CC2=O)cn1 [Compound 56, (4S)-4-(2,3-dichloro-6-hydroxyphenyl)-1-(1-methylpyrazol-4-yl)pyrrolidin-2-one]	> 100	–
< 100	Cn1cc(N2CC(c3c(O)ccc(Cl)c3Cl)CC2=O)ccc1=O (stereo not shown) [Compound 57, 5-[4-(2,3-dichloro-6-hydroxyphenyl)-2-oxopyrrolidin-1-yl]-1-methylpyridin-2-one]	> 10	–
< 100	O=C1C[C@@H](c2c(O)ccc(Cl)c2Cl)CN1c1cn[nH]c1 [Compound 58, (S)-4-(2,3-dichloro-6-hydroxyphenyl)-1-(1H-pyrazol-4-yl)pyrrolidin-2-one]	> 30	–
< 100	Nc1ccc(N2C[C@H](c3c(O)ccc(Cl)c3Cl)CC2=O)cn1 [Compound 61, (S)-1-(6-aminopyridin-3-yl)-4-(2,3-dichloro-6-hydroxyphenyl)pyrrolidin-2-one]	> 10	–
< 100	Nc1cc(N2C[C@H](c3c(O)ccc(Cl)c3Cl)CC2=O)ccn1 [Compound 62, (S)-1-(2-aminopyridin-4-yl)-4-(2,3-dichloro-6-hydroxyphenyl)pyrrolidin-2-one]	> 1	–
< 100	O=C1C[C@@H](c2c(O)ccc(Cl)c2Cl)CN1c1ccncc1 [Compound 64, (S)-4-(2,3-dichloro-6-hydroxyphenyl)-1-(pyridin-4-yl)pyrrolidin-2-one]	> 10	–
< 1000	Cn1cc(N2C[C@H](c3c(O)ccc(Cl)c3Cl)CC2=O)nn1 [Compound 65, (S)-4-(2,3-dichloro-6-hydroxyphenyl)-1-(1-methyl-1H-1,2,3-triazol-4-yl)pyrrolidin-2-one]	> 10	–
< 1000	Cn1cnc(N2C[C@H](c3c(O)ccc(Cl)c3Cl)CC2=O)n1 [Compound 66, (S)-4-(2,3-dichloro-6-hydroxyphenyl)-1-(1-methyl-1H-1,2,4-triazol-3-yl)pyrrolidin-2-one]	> 100	–
< 100	Cc1ncc(N2C[C@H](c3c(O)ccc(Cl)c3Cl)CC2=O)s1 [Compound 67, (S)-4-(2,3-dichloro-6-hydroxyphenyl)-1-(2-methylthiazol-5-yl)pyrrolidin-2-one]	> 100	–
< 1000	Cn1ccc(N2C[C@H](c3c(O)ccc(Cl)c3Cl)CC2=O)cc1=O [Compound 68, (S)-4-(4-(2,3-dichloro-6-hydroxyphenyl)-2-oxopyrrolidin-1-yl)-1-methylpyridin-2(1H)-one]	> 100	–
< 1000	O=C1C[C@@H](c2c(O)ccc(Cl)c2Cl)CN1c1cnoc1 [Compound 72, (4S)-4-(2,3-dichloro-6-hydroxyphenyl)-1-(isoxazol-4-yl)pyrrolidin-2-one]	> 100	–
